According to US8524755B2 (priority 2009, dated 2013):
pEC50: −log10 of the molar value.

Columns and labels:
[1] = target: T1, Androgen Receptor (Homo sapiens, UniProt P10275); test: Androgen Receptor Nuclear Translocation Assay; assay type: cell-based; details: agonist mode; PathHunter NHRPro cells; 5 h; read-out: AR Nuclear Translocation Assay Agonist Mode EC50
T1 construct: expressed in transfected cells; host or cells: PathHunter NHRPro cell lines
T1 sequence (P10275 1-920): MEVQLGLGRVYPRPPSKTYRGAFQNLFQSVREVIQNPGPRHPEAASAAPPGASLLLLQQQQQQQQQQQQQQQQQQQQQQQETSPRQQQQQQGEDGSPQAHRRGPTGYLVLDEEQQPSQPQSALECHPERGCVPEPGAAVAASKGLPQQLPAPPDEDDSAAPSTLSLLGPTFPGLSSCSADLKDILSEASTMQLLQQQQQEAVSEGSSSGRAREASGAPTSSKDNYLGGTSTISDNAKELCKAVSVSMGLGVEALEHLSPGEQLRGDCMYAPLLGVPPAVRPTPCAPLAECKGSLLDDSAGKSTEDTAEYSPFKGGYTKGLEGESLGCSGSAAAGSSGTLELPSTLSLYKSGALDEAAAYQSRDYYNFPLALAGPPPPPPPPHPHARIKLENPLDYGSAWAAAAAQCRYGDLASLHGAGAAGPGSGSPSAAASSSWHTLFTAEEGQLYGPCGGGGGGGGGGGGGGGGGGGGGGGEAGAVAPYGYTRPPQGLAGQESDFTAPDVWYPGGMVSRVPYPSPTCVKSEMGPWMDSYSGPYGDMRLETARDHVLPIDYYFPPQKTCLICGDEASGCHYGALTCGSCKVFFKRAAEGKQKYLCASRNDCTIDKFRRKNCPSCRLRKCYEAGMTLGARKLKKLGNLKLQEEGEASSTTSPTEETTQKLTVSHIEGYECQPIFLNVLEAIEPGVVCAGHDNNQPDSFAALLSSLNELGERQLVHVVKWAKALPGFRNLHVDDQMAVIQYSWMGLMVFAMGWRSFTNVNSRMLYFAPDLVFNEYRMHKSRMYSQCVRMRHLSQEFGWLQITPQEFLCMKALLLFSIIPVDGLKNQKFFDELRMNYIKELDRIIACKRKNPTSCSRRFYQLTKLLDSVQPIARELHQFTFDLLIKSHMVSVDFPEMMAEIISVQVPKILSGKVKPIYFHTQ
Method: Once it was established that the cells were healthy and growing normally, cells were transferred from flasks using trypsin-free cell dissociation buffer and seeded into white walled clear bottom 384-well microplates for compound profiling. For profiling, cells were seeded at a density of 10,000 cells per well in a total volume of 50 μL and were allowed to adhere and recover overnight prior to compound addition. Media contained charcoal-dextran filtered serum to reduce the level of hormones present.
Agonist Format: Intermediate dilution of compound stocks were generated such that 5.5 μL of 10X compound could be added to each well with a final DMSO concentration of 1% of total volume. For profiling compound in agonist mode, the cells were incubated in the presence of compound at 37° C. for 5 h.
Antagonist Format: Agonist dose curves were performed to determine the EC80 value for the following antagonist testing with compounds. 5.5 μL of 10× agonist was added to each well with an equal concentration of vehicle present. EC80 agonist concentration was determined directly from agonist dose curve. For antagonist determination, cells were pre-incubated with antagonist followed by agonist challenge at the EC80 concentration: 5.5 μL of 10× compound added to cells and incubated at 37° C. for 1 h; 5.5 μL of 11× EC80 agonist added to cells and incubated at 37° C. for 5 h.
Signal Detection: After appropriate compound incubation, assay signal was generated through a single addition of 30 μL (50% v/v) of PathHunter Detection reagent cocktail for agonist and antagonist assays respectively followed by 1 h incubation at room temperature. Microplates were read following signal generation with a PerkinElmer ViewLux™ instrument for chemiluminescent signal detection.
Data Analysis: Dose curves in the presence and absence of compound were plotted using GraphPad Prism.

[2] = [14C]RD162′ radio-HPLC metabolite profile in Pooled Rat Plasma; assay type: in vivo, Sprague Dawley rats; details: [14C]RD162′ 100 mg/kg/day oral, day 7, 4 h
Method: The rats were dosed once a day for seven consecutive days; four hours after dosing on the seventh day, plasma was collected from all three rats. The plasma samples were stored at approximately −70° C. or colder.
Positive ion electrospray LC/MS and LC/MS/MS were used to analyze the metabolites.
To prepare the Pooled Rat Plasma for HPLC analysis, approximately 1 g of the plasma sample was combined with acetonitrile (ACN, sample:ACN, 1:3, v:v), vortex mixed, sonicated in cold water, centrifuged, and the supernatants were removed. The extraction was repeated twice and the respective supernatants were combined. […] The combined supernatants were evaporated to dryness and reconstituted in 1 mL of 0.1% formic acid in reverse osmosis (RO) water:ACN: methanol (MeOH, 50:45:5, v:v:v). […] The reconstituted sample was analyzed by HPLC to determine the metabolite profile with fractions collected at 10-second intervals and analyzed by solid scintillation counting.
The prepared samples were analyzed using the following LC/MS/MS conditions: HPLC: Hewlett Packard 1100 series; Mobile Phase: 0.1% formic acid in reverse osmosis water (A) and acetonitrile (B); Column: Agilent Eclipse XDB-C18, 4.6×150 mm, 5 μm; Guard column: Phenomenex Security Guard Cartridge C18, 3×4 mm; Column temperature: 20° C.; Gradient: 20-80% B in 40 min; Flow Rate: 1.5 mL/min.

Molecule	pEC50 [1]	% Injected Radioactivity (%) [2] [%]	% Recovered Radioactivity (%) [2] [%]	Peak Area (mV) [2] [mV]	Peak Height (mV) [2] [mV]
Norgesterol [reference compound]	8.54	–	–	–	–
CC1(C)C(=O)N(c2ccc(C#N)c(C(F)(F)F)c2)C(=O)N1c1ccc(C(=O)O)c(F)c1 [(MV), 4-(3-(4-cyano-3-(trifluoromethyl)phenyl)-5,5-dimethyl-2,4-dioxoimidazolidin-1-yl)-2-fluorobenzoic acid]	–	5.76	9.05	308	49
